Where a name gives a salt, the structure may show the parent alone.

In the first experiment the target is Rho-associated protein kinase 2 (Homo sapiens, UniProt O75116). As to the kind of experiment: ROCK2 kinase inhibitor potency, dose response, biochemical, Kinase-Glo luminescence, S6 peptide, 1536-well (AID 644).
Sequence of Rho-associated protein kinase 2 (O75116 whole entry): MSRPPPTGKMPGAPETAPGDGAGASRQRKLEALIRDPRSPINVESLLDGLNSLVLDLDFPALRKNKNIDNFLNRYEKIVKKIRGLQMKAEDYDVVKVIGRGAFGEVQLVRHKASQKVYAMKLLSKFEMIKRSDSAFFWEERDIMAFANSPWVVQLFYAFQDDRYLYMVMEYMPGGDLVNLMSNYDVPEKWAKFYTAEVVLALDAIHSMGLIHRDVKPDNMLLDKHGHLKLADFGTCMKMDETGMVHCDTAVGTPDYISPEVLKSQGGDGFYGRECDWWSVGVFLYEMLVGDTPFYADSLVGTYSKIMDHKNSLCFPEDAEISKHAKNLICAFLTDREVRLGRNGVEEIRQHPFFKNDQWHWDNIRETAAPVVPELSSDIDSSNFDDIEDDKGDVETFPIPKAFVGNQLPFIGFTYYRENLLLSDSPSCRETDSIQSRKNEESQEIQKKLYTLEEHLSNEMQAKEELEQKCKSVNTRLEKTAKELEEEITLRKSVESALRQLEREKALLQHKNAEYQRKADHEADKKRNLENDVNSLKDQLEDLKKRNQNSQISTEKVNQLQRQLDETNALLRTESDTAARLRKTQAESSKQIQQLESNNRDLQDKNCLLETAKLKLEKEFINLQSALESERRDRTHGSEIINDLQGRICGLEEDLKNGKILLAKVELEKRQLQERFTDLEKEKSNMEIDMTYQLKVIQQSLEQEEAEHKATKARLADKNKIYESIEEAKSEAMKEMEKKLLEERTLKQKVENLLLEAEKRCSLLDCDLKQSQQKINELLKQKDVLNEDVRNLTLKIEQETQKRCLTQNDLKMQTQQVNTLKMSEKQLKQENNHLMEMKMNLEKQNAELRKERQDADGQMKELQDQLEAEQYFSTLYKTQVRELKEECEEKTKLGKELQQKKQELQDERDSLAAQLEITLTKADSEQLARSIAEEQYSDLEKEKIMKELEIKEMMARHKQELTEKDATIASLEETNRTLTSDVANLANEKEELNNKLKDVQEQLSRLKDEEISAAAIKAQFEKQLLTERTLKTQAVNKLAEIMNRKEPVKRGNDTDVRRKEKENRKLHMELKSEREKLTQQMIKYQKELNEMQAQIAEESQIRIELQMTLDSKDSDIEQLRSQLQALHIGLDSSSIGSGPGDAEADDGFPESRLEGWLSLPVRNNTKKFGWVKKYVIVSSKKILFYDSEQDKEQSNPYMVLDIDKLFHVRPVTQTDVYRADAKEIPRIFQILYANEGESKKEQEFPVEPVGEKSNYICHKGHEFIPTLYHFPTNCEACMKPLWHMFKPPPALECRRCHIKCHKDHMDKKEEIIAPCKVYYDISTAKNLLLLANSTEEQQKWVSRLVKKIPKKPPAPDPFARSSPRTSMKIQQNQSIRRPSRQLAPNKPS
Settings: not given
Background: Kinase-Glo measures the ATP left after a reaction by luminescence.
The term IC50 denotes the concentration that gives 50% inhibition. Consider `C(=Nc1nc2ccccc2n1CCN1CCCCC1)c1cccs1` [MLS000038975], for which the concentration for half-maximal inhibition (IC50) is greater than 59.6 µM.

With `C[C@H]1CNCCN1S(=O)(=O)c1cccc2cnccc12`, half-maximal inhibition (IC50) required 0.1 µM.

As to `COc1ccc2cc3c(N)c(C(=O)NCc4ccco4)sc3nc2c1` [3-Amino-7-methoxy-thieno[2,3-b]quinoline-2-carboxylic acid (furan-2-ylmethyl)-amide], the IC50 was greater than 19.9 µM.

In the case of `Cc1cccc(N2CCN(C(=O)c3cn(C)c(=O)c4c3c3ccccc3n4C)CC2)c1C` [4-[4-(2,3-dimethylphenyl)piperazin-1-yl]carbonyl-2,9-dimethyl-pyrido[3,4-b]indol-1-one], the IC50 is greater than 59.6 µM.

In the case of `Fc1ccccc1Cn1nnc2c(-n3ccnc3)ncnc21` [3-(2-Fluoro-benzyl)-7-imidazol-1-yl-3H-[1,2,3]triazolo[4,5-d]pyrimidine], the IC50 is greater than 19.9 µM.

Take `Clc1ccccc1-c1nn2c(-c3ccncc3)nnc2s1` [6-(2-chlorophenyl)-3-(4-pyridinyl)[1,2,4]triazolo[3,4-b][1,3,4]thiadiazole]: the concentration for half-maximal inhibition (IC50) is greater than 59.6 µM.

The molecule `Cc1cc(C(=O)CN2C(=O)NC3(CCCCC3)C2=O)c(C)n1Cc1ccc2c(c1)OCO2` [3-[2-(2,5-dimethyl-1-piperonyl-pyrrol-3-yl)-2-keto-ethyl]-1,3-diazaspiro[4.5]decane-2,4-quinone] showed a half-maximal inhibitory concentration (IC50) greater than 59.6 µM.

`c1ccc(OCCCc2nc(-c3ccncc3)no2)cc1` [4-[5-(3-phenoxypropyl)-1,2,4-oxadiazol-3-yl]pyridine] registered an IC50 greater than 59.6 µM.

Consider `Cc1ccccc1NC(=O)Cn1c(C)nc2ccc(NC(=O)C3CC3)cc2c1=O` [Cyclopropanecarboxylic acid [2-methyl-4-oxo-3-(o-tolylcarbamoyl-methyl)-3,4-dihydro-quinazolin-6-yl]-amide], for which the IC50 is greater than 59.6 µM.

For the molecule `CCCCc1c(C)nc(N)[nH]c1=O` [2-azanyl-5-butyl-6-methyl-1H-pyrimidin-4-one], the half-maximal inhibitory concentration (IC50) is greater than 59.6 µM.

For `c1ccc2c(c1)[nH]c1cnccc12` [9H-pyrido[3,4-b]indole], the IC50 is greater than 19.9 µM.

`c1nc(N2CCOCC2)c2nc[nH]c2n1` [4-(7H-purin-6-yl)morpholine] came in with an IC50 of 7.09 µM.

`Cc1cc(Cl)ccc1OCc1nnc(-c2ccc(O)cc2)[nH]1` [MLS000097369]: the concentration for half-maximal inhibition (IC50) is greater than 19.9 µM.

As for `N#Cc1cccc(NC(=O)CSc2ccccc2)c1` [MLS000099417], the IC50 is greater than 19.9 µM.

The molecule `CCc1cc2c(O)ncnc2s1` [MLS000029626] returned a half-maximal inhibitory concentration (IC50) of 5.72 µM.

`CCn1cc(C(=O)Nn2cnnc2)c(=O)c2ccc(C)nc21` [1-ethyl-4-keto-7-methyl-N-(1,2,4-triazol-4-yl)-1,8-naphthyridine-3-carboxamide] had an IC50 greater than 59.6 µM.

Consider `CN1c2cccc3cccc(c23)C1N=O` (centres undefined) [1-Methyl-1H-benzo[cd]indol-2-one oxime], for which the concentration for half-maximal inhibition (IC50) was greater than 19.9 µM.

Consider `Nc1nc2ccccc2n1C(=O)CCc1ccccc1` [1-(2-Amino-benzoimidazol-1-yl)-3-phenyl-propan-1-one], for which the IC50 was greater than 59.6 µM.

`CC(C)CCN1CC(C(=O)N2CCN(c3ccc(F)cc3)CC2)CC1=O` (centres undefined) [4-[4-(4-fluorophenyl)piperazin-1-yl]carbonyl-1-(3-methylbutyl)pyrrolidin-2-one] came in with an IC50 greater than 59.6 µM.

The molecule `COc1cc(C=Nn2nnnc2N)ccc1OCc1ccc(F)cc1` [1-[[4-[(4-fluorophenyl)methoxy]-3-methoxy-phenyl]methylideneamino]-1,2,3,4-tetrazol-5-amine] yielded a concentration for half-maximal inhibition (IC50) of 17.5 µM.

For the molecule `Cc1cc(=O)n(-c2ccccc2)[nH]1` [MLS000069602], the IC50 is greater than 59.6 µM.

`O=c1ccc(=O)n2n1CC(O)C2` [2-hydroxy-2,3-dihydro-1H-pyrazolo[1,2-a]pyridazine-5,8-dione]: the concentration for half-maximal inhibition (IC50) was greater than 59.6 µM.

On to `CC(C)(C)C(=O)c1sc(Nc2ccccc2)nc1N` [1-(4-amino-2-anilino-1,3-thiazol-5-yl)-2,2-dimethyl-1-propanone], for which the half-maximal inhibitory concentration (IC50) was greater than 59.6 µM.

`CCCCCC(=O)Nc1ccc2oc(-c3ccncc3)nc2c1` [MLS000039066] came in with a half-maximal inhibitory concentration (IC50) greater than 19.9 µM.

Molecule `Cc1[nH]c2ccccc2c1C1=CCNCC1` [MLS000045807] registered an IC50 of 9.63 µM.

Regarding `COc1ccc(CCC(=O)Nc2nc3c(s2)CN(C)CC3)cc1OC` [3-(3,4-dimethoxyphenyl)-N-(5-methyl-6,7-dihydro-4H-[1,3]thiazolo[5,4-c]pyridin-2-yl)propanamide], the half-maximal inhibitory concentration (IC50) was greater than 59.6 µM.

In the case of `COC(=O)c1sc2cnccc2c1N` [3-amino-2-thieno[2,3-c]pyridinecarboxylic acid methyl ester], the IC50 was determined as 8.3 µM.

`Cc1c2ccncc2c(C)c2c1[nH]c1ccccc12` [5,11-dimethyl-2H-pyrido[4,3-b]carbazole] had a 50% inhibitory concentration (IC50) of 6.68 µM.

Turning to `c1cc2c(cc1Nc1nc(-c3ccc4c(c3)OCO4)cs1)OCCO2` [4-(1,3-benzodioxol-5-yl)-N-(2,3-dihydro-1,4-benzodioxin-6-yl)-1,3-thiazol-2-amine], the IC50 is greater than 59.6 µM.

Turning to `CCN1C(=O)N(CC)C(O)(c2ccccc2)C1(O)c1ccccc1` (centres undefined) [1,3-diethyl-4,5-bis(oxidanyl)-4,5-diphenyl-imidazolidin-2-one], the 50% inhibitory concentration (IC50) is greater than 59.6 µM.

Regarding `Nc1ccc2cn[nH]c2c1`, the concentration for half-maximal inhibition (IC50) is greater than 19.9 µM.

The molecule `N#Cc1c(N=Cc2cccs2)sc2c1CCCCC2` [2-(2-thenylideneamino)-5,6,7,8-tetrahydro-4H-cyclohepta[b]thiophene-3-carbonitrile] yielded a 50% inhibitory concentration (IC50) greater than 59.6 µM.

`Cc1onc(-c2ccccc2)c1C(=O)N1CCN(C/C=C/c2ccccc2)CC1` [(5-methyl-3-phenyl-1,2-oxazol-4-yl)-[4-[(E)-3-phenylprop-2-enyl]piperazin-1-yl]methanone;hydrochloride] gave a half-maximal inhibitory concentration (IC50) greater than 59.6 µM.

For `COC(=O)c1cccc2c1-c1ccccc1C2N=O` (centres undefined) [(9Z)-9-hydroximinofluorene-4-carboxylic acid methyl ester], the concentration for half-maximal inhibition (IC50) was greater than 19.9 µM.

With `O=C(Nn1c(=S)[nH]c2ccccc2c1=O)c1ccncc1`, the IC50 is greater than 19.9 µM.

Consider `O=C(Nc1ccncc1)C1CCCN(S(=O)(=O)c2cccc3cccnc23)C1` (centres undefined) [MLS000118826], for which 1.73 µM corresponded to half-maximal inhibition (IC50).

Molecule `Oc1ncnc2cc(Cl)ccc12` [7-Chloro-quinazolin-4-ol] had an IC50 greater than 19.9 µM.

Take `CC(=O)c1ccc(OCC(O)COc2ccc(C(C)=O)cc2)cc1` [1-[4-[3-(4-acetylphenoxy)-2-hydroxy-propoxy]phenyl]ethanone]: the IC50 was greater than 59.6 µM.

For the molecule `N#CC1C(=N)Oc2cc(O)ccc2C1c1ccncc1` (centres undefined) [2-amino-7-hydroxy-4-(4-pyridyl)-4H-chromene-3-carbonitrile], inhibition was half-maximal at 127 µM (IC50).

As for `Nc1nonc1-c1nc2ccccc2[nH]1`, the 50% inhibitory concentration (IC50) worked out at 23.1 µM. Against the preceding molecule, the IC50 is about 5.5-fold lower.

For the molecule `C1=C(c2ccccc2)CCN(c2[nH]cnc3ncnc2-3)C1` [SMR000017661], the half-inhibitory concentration (IC50) was greater than 19.9 µM.

Molecule `COc1ccc2[nH]c(=O)c3c(c2c1)OC(C)(C)C=C3` had a half-maximal inhibitory concentration (IC50) greater than 19.9 µM.

Still in this experiment, the particulars now being: inactive by the depositor's call.
Consider `O=C(NCc1ccc2c(c1)OCO2)c1ccc2snnc2c1` [Benzo[1,2,3]thiadiazole-5-carboxylic acid (benzo[1,3]dioxol-5-ylmethyl)-amide], for which it took 11.6 µM to reach half-maximal inhibition (IC50).

Consider `O=C(Nc1ccncc1)Nc1ccc(F)cc1F` [1-(2,4-difluorophenyl)-3-(4-pyridyl)urea], for which inhibition was half-maximal at 19 µM (IC50).

As to `NC(=O)c1sc2nc(N3CCCCC3)c3c(c2c1N)CCCC3` [1-amino-5-(1-piperidinyl)-6,7,8,9-tetrahydrothieno[2,3-c]isoquinoline-2-carboxamide], half-maximal inhibition (IC50) was put at 143 µM.

Molecule `Cc1ccc(S(=O)(=O)NCCCOC(=O)Nc2ccncc2)cc1` [3-[(4-methylphenyl)sulfonylamino]propyl N-pyridin-4-ylcarbamate] had a half-inhibitory concentration (IC50) of 20.6 µM.

`c1nc(NC2CCCCC2)c2[nH]cnc2n1` [N-cyclohexyl-7H-purin-6-amine] registered an IC50 of 15.3 µM.

On to `Nc1ncnc2c1cnn2-c1ccccc1` [1-Phenyl-1H-pyrazolo[3,4-d]pyrimidin-4-ylamine], for which it took 20.5 µM to reach half-maximal inhibition (IC50). The IC50 values of the last two molecules are within 1.5-fold of each other.

In the case of `Cc1cccc(Nc2ncnc3[nH]cnc23)c1` [N-(3-methylphenyl)-7H-purin-6-amine], the IC50 is 13 µM.

Molecule `O=C(Oc1cccc2c(=O)[nH]ccc12)c1ccccc1` [(1-oxo-2H-isoquinolin-5-yl) benzoate] had a half-maximal inhibitory concentration (IC50) of 55.7 µM.

As for `Clc1ccccc1-c1nnc2sc(-c3ccncc3)nn12` [3-(2-chlorophenyl)-6-(4-pyridyl)-[1,2,4]triazolo[3,4-b][1,3,4]thiadiazole], it took 79.1 µM to reach half-maximal inhibition (IC50).

As to `Nc1ccc2[nH]ncc2c1`, the half-inhibitory concentration (IC50) came to 12.9 µM. This IC50 lies about 6.1-fold lower than the previous one.

Molecule `COC1(OC)N=C(N)C2(C#N)C(c3ccc4c(c3)OCO4)C12C#N` (centres undefined) had an IC50 of 47.9 µM. Compared with the last molecule, the IC50 is about 3.7-fold higher.

In the case of `CN1C(=O)CSc2ccc(NC(=O)NCc3cccnc3)cc21` [1-(3-keto-4-methyl-1,4-benzothiazin-6-yl)-3-(3-pyridylmethyl)urea], the IC50 stood at 10.1 µM.

For `NC(=O)c1c(-c2cccs2)csc1N` [2-amino-4-(2-thienyl)thiophene-3-carboxamide], the IC50 came out at 19.5 µM.

As for `Brc1ccc2[nH]ncc2c1`, 16.3 µM corresponded to half-maximal inhibition (IC50).

As to `O=C(Nc1ccc(N2CCOCC2)cc1)Nc1ccc2nc(-c3ccco3)c(-c3ccco3)nc2c1` [N-(2,3-di-2-furyl-6-quinoxalinyl)-N'-[4-(4-morpholinyl)phenyl]urea], half-maximal inhibition (IC50) was put at 25.6 µM.

In turn, `Cc1cc2c(ccc3[nH]onc32)n1` [MLS000038925] gave an IC50 of 18.8 µM.

As for `CCC(=O)Nc1ccc(C(=O)Cn2nc(C(=O)O)c3ccccc3c2=O)cc1` [4-keto-3-[2-keto-2-(4-propionamidophenyl)ethyl]phthalazine-1-carboxylic acid], the half-inhibitory concentration (IC50) was determined as 11 µM. This IC50 lies about 1.7-fold lower than the previous one.

The values are drawn from BindingDB's records for doi:10.7270/Q2F769ZM (The Scripps Research Institute Molecular Screening Center, 2007).
